Data reported in patent US11994511B2, “Biomarkers indicative of prostate cancer and treatment thereof” (UNIVERSITY OF MIAMI, priority 2017, dated 2024).

How the values were obtained:
Assay type in all cases: cell-based, human
RWPE-1 cells = assay: Cell proliferation (cell confluence, Incucyte Zoom), non-tumorigenic prostate epithelial cell line RWPE-1; details: 72 hours; DOX 100 ng/mL [184 nM], N-9 200 ng/mL [613 nM]; vs vehicle (DMSO)
Description: (§4) Cell confluence was monitored using Incucyte Zoom System and the experiments were done with eight replicates each. […] FIG. 4B: The non-tumorigenic prostate epithelial cell line RWPE1, the AR-null PC cell line PC3, and the CRPC cell lines C4-2B and 22Rv1 were treated for 72 hours with vehicle (DMSO), DOX (100 ng/mL [184 nM]), N-9 (200 ng/mL [613 nM]), or the combination of DOX (100 ng/mL [184 nM]) and N-9 (200 ng/mL [613 nM]). C4-2B and 22Rv1 cells were kept in 10% CSS media. Cell confluence was monitored using the Incucyte Zoom System. […] Cell confluence was monitored using the Incucyte Zoom System.
(§5) FIG. 19: The non-tumorigenic prostate epithelial cell line RWPE1, the AR-null PC cell line PC3, the CRPC cell lines C4-2B and 22Rvl and androgen dependent cell line LNCaP were treated for 72 hours with vehicle (DMSO), DOX (100 ng/mL [184 nM]), N-9 (200 ng/mL [613 nM]), or the combination of DOX (100 ng/mL [184 nM]) and N-9 (200 ng/mL [613 nM]). […] Cell confluence was monitored using the Incucyte Zoom System. […]
(§6) Cell proliferation: For growth assay, cells were plated in 96-well plates at 5,000 cells/well (for RWPE-1), or 7,500 cells/well (for 22Rvl, C4-2B, PC3), in 6-12 replicates. […] The Incucyte Zoom software was used to analyzed and graph the results.

22Rv1 cells = assay: Cell proliferation (cell confluence, Incucyte Zoom) and Compusyn combination index, CRPC cell line 22Rv1; details: 72 hours; DOX 100 ng/mL [184 nM], N-9 200 ng/mL [613 nM]; 10% CSS; vs vehicle (DMSO)
Description: FIG. 4A: The CRPC cell line 22Rv I was cultured in 2% CSS media and was treated for 72 hours with vehicle (DMSO), doxorubicin (DOX), N9-isopropylolomoucine (N-9), or the combination of DOX and N-9 at different concentrations. Cell confluence was monitored using Incucyte Zoom System and the experiments were done with eight replicates each. The data were analyzed using Compusyn software, and a normalized isobologram was built. […] CI=1 represents additivity, CI<1 synergism, and Cl>1 antagonistic effects. […] Cell confluence was monitored using the Incucyte Zoom System. […] Cell confluence was monitored using the Incucyte Zoom System. […]
as §6
To test whether inhibition of this network decreased CRPC cell proliferation, we used doxoruhicin (DOX), which inhibits TOP2A (Tacar et al., 201.3), and N9-isopropylolomoucine (N-9), which targets CCNB 1/CDK1 (Havlicek et al, 1997). […] The normalized isohologram and combination index (CI) were built and determined using Compusyn software.

C4-2B cells = assay: Cell proliferation (cell confluence, Incucyte Zoom), CRPC cell line C4-2B; details: 72 hours; DOX 100 ng/mL [184 nM], N-9 200 ng/mL [613 nM]; 10% CSS; vs vehicle (DMSO)
Description: as §4, §5, §6

PC3 cells = assay: Cell proliferation (cell confluence, Incucyte Zoom), AR-null PC cell line PC3; details: 72 hours; DOX 100 ng/mL [184 nM], N-9 200 ng/mL [613 nM]; vs vehicle (DMSO)
Description: as §4, §5, §6

[1] = test system: seven gene set (KIF20A, KIF23, TOP2A, CCNB1, CCNB2, BUB1, BUB1b) expression in 22Rv1 cells; assay: qPCR expression of the seven gene set after androgen (R1881) stimulation, 22Rv1; details: 22Rv1, R1881 0.1 nM, 16 hours, vs vehicle
Description: (§1) LNCaP and 22Rv1 cells were seeded and 24 hours later were rinsed twice with PBS and incubated in serum free media for one hour. The cells were then incubated in media containing vehicle or R1881 (0.1 nM) for 16 hours prior to RNA extraction and qPCR analysis. FKBP5 was used as a positive control. Data represent one or two independent experiments, performed in biological triplicates, showing the mean±s.e.m., and normalized to vehicle control. Significant at a p value, ** p value<0.01, *** p value<0.001.
(§2) RNA isolation and reverse transcriptase quantitative RT-qPCR: Total RNA was collected using Trizol according to the manufacturer's protocol (Life Technologies), and isolated using Direct-zol RNA MiniPrep Plus (Zymo Research, Catalog number R2072). Total RNA was reverse transcribed using a cDNA ReverseTranscription kit (Applied Biosystems, Catalog number 4368814) as per the manufacturer's protocol. TaqMan probes from Applied Biosystems for FKBP5 (Hs01561006 ml), UBE2C (Hs00964100 gl), KIF20A (Hs00993573 ml), KIF23 (Hs00370852 ml), TOP2A (Hs01032137 ml), CCNB1 (Hs01030099 ml), CCNB2 (Hs01084593 gl), BUB1 (Hs01557695 ml), BUBlb (Hs01084828 ml) and GAPDH (Hs02786624 gl) were used.
(§3) Because of the overlapping transcriptomes of full length AR and AR-V7, we examined whether full length AR also regulated the seven gene set.

[2] = test system: seven gene set (KIF20A, KIF23, TOP2A, CCNB1, CCNB2, BUB1, BUB1b) expression in LNCaP cells; assay: qPCR expression of the seven gene set after androgen (R1881) stimulation, LNCaP; details: R1881 0.1 nM, 16 hours, vs vehicle
Description: as §1, §2, §3

SMILES	Effect on proliferation of RWPE-1 (RWPE-1 cells)	Effect on proliferation of 22Rv1 (22Rv1 cells)	Effect on proliferation of C4-2B (C4-2B cells)	Effect on proliferation of PC3 (PC3 cells)	Regulation of expression of the seven genes (qPCR) [1]	Regulation of expression of the seven genes (qPCR) [2]
COc1cccc2c1C(=O)c1c(O)c3c(c(O)c1C2=O)C[C@@](O)(C(=O)CO)C[C@@H]3O[C@H]1C[C@H](N)[C@H](O)[C@H](C)O1 [DOX, Doxorubicin]	no significant effect	no significant effect	no significant effect	no significant effect	–	–
CC(C)n1cnc2c(NCc3ccccc3)nc(NCCO)nc21 [N-9, N9-Isopropylolomoucine]	no significant effect	no significant effect	no significant effect	no significant effect	–	–
C[C@]1(O)CC[C@H]2[C@@H]3CCC4=CC(=O)CCC4=C3C=C[C@@]21C [R1881, methyltrienolone]	–	–	–	–	None of the seven genes are regulated	None of the seven genes are regulated
